± gives the expanded uncertainty stated by the source.
Legend:
[1] = Molar enthalpy of transition or fusion; conditions: Crystal; Adiabatic calorimetry
[2] = Crystal; Adiabatic calorimetry

Question: What does the source list for `CC(C)COC(C)(C)C` [isobutyl tert-butyl ether]?
Answer: Molar enthalpy of transition or fusion [1]: 2.067 ± 0.012 kcal/mol; Triple point temperature [2]: 162.33 ± 0.05 K

From the NIST ThermoML archive (doi:10.1016/j.jct.2005.02.003)
